Tests used:
[1] = Decomposition kinetics by UV spectrophotometry in PBS; assay type: physicochemical; settings: for pH dependence of hydrolysis rate: 37° C.
Method: FIGS. 3A and 3B are graphs illustrating the pH-dependence of the rate constant of decomposition of (FIG. 3A) 1 (100 or 200 μM) and (FIG. 3B) 2 (100 μM) at 37° C. in PBS containing 50 μM DTPA measured at 250 nm (mean±SEM, n≥3).
(§1) The rate constants of decomposition were measured spectrophotometrically by monitoring the decrease in absorbance of peaks at ^˜240-250 nm characteristic of the diazeniumdiolate functionality. The hydrolysis medium consisted of the metal chelator diethylenetriaminepentaacetic acid (DTPA, 50 μM) in calcium- and magnesium-free Dulbecco's phosphate-buffered saline (PBS, pH 7.4). UV-visible spectroscopy was performed with a Hewlett-Packard 8453 diode-array spectrophotometer equipped with Agilent 89090A thermostat set to 37° C. The spectrophotometer was blanked after warming the cuvette containing buffer at the appropriate pH in the instrument heat block for 5 min. For esterase-containing reactions, porcine liver esterase (20 μL; Sigma; suspension in 3.2 M (NH4)2SO4, pH 8) was added to the reaction buffer before blanking. Upon addition of IPA/NO (1) or AcOM-IPA/NO (2) (≤10 μL of stock), the cuvette was capped and inverted to mix. Spectra were collected at 0.5- to 60-s intervals for time periods of 2-120 min or until A∞<0.05. Kinetic analysis was performed by fitting the data to an exponential decay (A=ΔAe^−kt+A∞) using KaleidaGraph v.3.1.

[2] = test system: porcine liver esterase; assay: Esterase-catalyzed hydrolysis; assay type: in vitro ADME
Method: FIGS. 4A-C are graphs illustrating spontaneous hydrolysis (FIGS. 4A and 4B) and esterase-catalyzed hydrolysis (FIG. 4C) of 2 in an embodiment of the invention. In FIG. 4A, spectra were collected every 60 s (10-min intervals shown) after dissolving 2 in PBS (pH 7.4) at 37° C., and only loss of the parent compound was observed. In FIG. 4B, the pH was elevated to 12, and scans were collected every 0.5 s (through 2.5 s and 3.5, 5.5, 9.5, and 54.5 shown). In FIG. 4C, porcine liver esterase (20 μL in 3 mL) was added (pH 7.4), and spectra were collected every 10 s. Hydrolysis of 2 (λmax 236 nm) to 1 (λmax 250 nm) was complete within 40 s (0.067 s^−1) under these conditions. […] Elevation of the intensity near 200 nm indicated formation of autoxidation products such as nitrite. Deaeration inhibited this peak (data not shown).
as §1

[3] = Alkaline hydrolysis at pH 11 followed by NMR; assay type: physicochemical
Method: Organic products of the hydrolysis of 1 and 2 were quantified by integrating their NMR spectra. For pH 7.4, 3.9 mM solutions in 0.1 M phosphate buffer were employed. For pH 11, 4.9 mM solutions of 1 and 2 in 50 mM sodium carbonate were studied. Samples were run on a Varian Inova 400 MHz NMR with a Dell Precision 390 workstation. The samples were run at 37° C. and water suppression was achieved by using the preset pulse sequence. Peaks were identified by comparison with authentic standards.
Differences in time course as well as stoichiometry in the alkaline hydrolysis of 1 and 2 also matched the expectation based on the HNO/NO yield and rate data. […] Compound 2, on the other hand, completely dissociated within 5 min at 37° C. in a pH 11 carbonate buffer. […] However, the amine was undetectable.

[4] = test system: MDA-MB-231 xenografts; assay: MDA-MB-231-GFP xenograft growth and brain metastasis in nude mice; assay type: in vivo; settings: daily injection of equimolar doses for five weeks, vs control
Method: The cells were allowed to grow for 14 d, and the animals (40) were randomly divided into four groups (control, aspirin, IPA/NO-aspirin or DEA/NO-aspirin). Treated groups were injected daily with equimolar doses of DEA/NO-aspirin or IPA/NO-aspirin (16 mg kg^−1) or aspirin (9 mg kg^−1)) or with DMSO for the next five weeks.
For examples utilizing mouse tumor model methods, the following procedure was instituted. Analysis of tumor growth was carried out using protocols approved by the Committee on the Ethics of Animal Experiments of the National Cancer Institute (RBB-144) and adhered with the recommendations in the United States National Research Council's “Guide for the Care and Use of Laboratory Animals,” the United States Public Health Service's “Guide for the Care and Use of Laboratory Animals” and the “Policy on Humane Care and Use of Laboratory Animals”. The vivarium was maintained at 23° C. on a 12 h light/12 h dark cycle with ad libitum access to food and water. Nude mice (n=40) under general anesthesia were implanted with 7.5×10^5 MDA-MB-231 cells transfected with GFP by injection underneath the fourth left mammary gland. Prior to implantation, pedal withdrawal and eyelid reflexes were examined to ensure that mice were under stage III of anesthesia. At 14 days post-inoculation, the mice were randomly divided into four groups and treated by daily injection of equimolar doses (10 μL of 100 mM stock) of aspirin (9.00 mg kg^−1), IPA/NO-aspirin (15.8 mg kg^−1) or DEA/NO-aspirin (16.3 mg kg^−1) or with vehicle (DMSO). After five weeks, the tumor size was measured using in vivo fluorescent imaging for quantification of the GFP tag. In brief, mice were under general anesthesia throughout the whole body imaging process, and GFP signals were captured and quantified in an Xenogen IVIS 100 Imaging System according to the manufacturer's protocol. To assess metastasis in the brain, the animals were subsequently sacrificed following the approved method and guidelines.

[5] = test system: MDA-MB-231 cells; assay: Oxidation of DCF (oxidant level) in cells; assay type: cell-based, human; settings: 100 μM, 37° C., MDA-MB-231 as representative example
Method: DCF loaded cells were treated with IPA/NO-aspirin (blue), DEA/NO-aspirin (green), IPA/NO (magenta), DEA/NO (brown), aspirin (red) or DMSO (0.1%; black) at 37° C., and the fluorescence at 535 nm was measured in a time-dependent manner. Data are plotted as mean±SD (n=4).

[6] = test system: BCL-2; assay: BCL-2 expression; assay type: cell-based; settings: FIG. 18
[7] = test system: ER-α; assay: ER-α levels (mRNA of ER1) in ER-α(−) cells; assay type: cell-based; settings: FIG. 20
[8] = test system: various cancer cells lines; settings: read-out: IC50 (cytotoxicity); cited from earlier work
[9] = target: T1, PARP (Homo sapiens, UniProt P09874); settings: caspase-3 null MCF-7 cells; cited from earlier work
T1 construct: on PARP activity has been determined in caspase-3 null MCF-7 cells; host or cells: MCF-7

[10] = test system: MDA-MB-231 xenograft; settings: SCID mice, 17 and 50 mg kg^−1, compared to control; cited from earlier work
[11] = test system: angiogenesis in mouse tumor specimens; settings: high concentration; cited from earlier work
[12] = test system: vascular endothelial growth factor (VEGF); settings: high concentration; cited from earlier work
[13] = target: hypoxia-inducible factor (HIF) 1α (Homo sapiens, UniProt Q16665); settings: high concentration, human breast cancer cells; cited from earlier work
[14] = test system: MB-231 cells; assay: cells; settings: Homo sapiens, 48 h
Method: In this example, a 3-(4,5-dimethylthiazol-2-yl)-2,5-diphenyltetrazolium bromide (MTT)viability assay was used to evaluate combination therapy to on the cytotoxicity of cancer cells using compound embodiments.
Cells were plated at 8,000-10,000 cells per well in a 96-well plate and grown overnight. […] Thereafter, 10 μL of 5 mg/mL MTT was added to each well, and the plate was incubated for 1 hour at 37° C. After removal of the media, 100 μL of DMSO was added to each well, and the absorbance was recorded at 550 nm. Growth inhibition is reported as the percentage of the corresponding control.

[15] = porcine liver esterase 20 μL in 3 mL, pH 7.4

T1 sequence (P09874 whole entry): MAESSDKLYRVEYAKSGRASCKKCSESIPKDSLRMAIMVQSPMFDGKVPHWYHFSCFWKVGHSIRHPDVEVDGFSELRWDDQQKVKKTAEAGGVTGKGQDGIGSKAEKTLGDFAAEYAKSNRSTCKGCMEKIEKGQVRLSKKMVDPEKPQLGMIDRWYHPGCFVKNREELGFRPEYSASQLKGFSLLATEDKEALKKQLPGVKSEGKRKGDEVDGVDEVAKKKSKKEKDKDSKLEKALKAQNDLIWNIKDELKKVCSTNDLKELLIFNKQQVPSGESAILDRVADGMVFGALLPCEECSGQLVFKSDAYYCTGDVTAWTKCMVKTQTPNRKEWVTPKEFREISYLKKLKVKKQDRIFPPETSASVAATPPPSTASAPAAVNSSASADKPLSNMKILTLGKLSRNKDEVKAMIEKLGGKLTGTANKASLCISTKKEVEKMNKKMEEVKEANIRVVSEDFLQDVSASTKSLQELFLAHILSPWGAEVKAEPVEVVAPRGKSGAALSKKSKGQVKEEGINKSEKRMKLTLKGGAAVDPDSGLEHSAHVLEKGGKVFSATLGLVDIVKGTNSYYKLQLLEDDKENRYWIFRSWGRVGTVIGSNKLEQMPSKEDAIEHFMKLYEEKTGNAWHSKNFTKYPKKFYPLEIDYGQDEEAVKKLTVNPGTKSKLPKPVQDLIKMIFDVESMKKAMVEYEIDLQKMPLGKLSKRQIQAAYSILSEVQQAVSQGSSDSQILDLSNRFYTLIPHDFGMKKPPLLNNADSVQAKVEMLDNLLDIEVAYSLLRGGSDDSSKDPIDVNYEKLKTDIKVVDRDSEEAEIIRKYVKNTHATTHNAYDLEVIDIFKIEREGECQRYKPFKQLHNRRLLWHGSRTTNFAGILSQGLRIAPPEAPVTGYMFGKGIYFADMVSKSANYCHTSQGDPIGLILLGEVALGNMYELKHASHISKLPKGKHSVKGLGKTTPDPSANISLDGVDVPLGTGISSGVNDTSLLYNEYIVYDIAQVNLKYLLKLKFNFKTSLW
Chain of hypoxia-inducible factor (HIF) 1α (Q16665 whole entry): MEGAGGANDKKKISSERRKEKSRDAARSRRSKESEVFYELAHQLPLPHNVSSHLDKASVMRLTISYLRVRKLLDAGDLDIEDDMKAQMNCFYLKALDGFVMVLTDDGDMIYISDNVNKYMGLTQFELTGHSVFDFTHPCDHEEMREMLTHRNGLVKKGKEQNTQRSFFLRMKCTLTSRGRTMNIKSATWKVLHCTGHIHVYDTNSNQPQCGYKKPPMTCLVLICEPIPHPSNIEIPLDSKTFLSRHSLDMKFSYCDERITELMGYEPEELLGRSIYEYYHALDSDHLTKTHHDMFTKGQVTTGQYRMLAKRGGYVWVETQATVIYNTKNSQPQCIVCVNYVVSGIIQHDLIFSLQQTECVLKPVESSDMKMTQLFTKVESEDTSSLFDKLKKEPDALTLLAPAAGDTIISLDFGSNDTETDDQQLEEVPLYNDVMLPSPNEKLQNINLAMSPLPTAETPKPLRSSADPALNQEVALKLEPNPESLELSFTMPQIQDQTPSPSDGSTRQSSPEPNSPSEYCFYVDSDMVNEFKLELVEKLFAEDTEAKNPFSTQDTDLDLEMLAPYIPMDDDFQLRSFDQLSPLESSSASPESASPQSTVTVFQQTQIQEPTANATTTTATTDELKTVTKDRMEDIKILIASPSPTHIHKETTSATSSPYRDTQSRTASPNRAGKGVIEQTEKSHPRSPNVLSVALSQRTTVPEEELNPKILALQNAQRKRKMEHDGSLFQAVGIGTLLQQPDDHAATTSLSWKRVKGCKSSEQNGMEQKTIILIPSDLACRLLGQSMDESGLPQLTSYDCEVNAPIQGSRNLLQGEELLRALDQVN

With `CC(=O)OCO/N=[N+](\[O-])NC(C)C` [Compound 2, O^2-(acetoxymethyl)1-(isopropylamino)diazen-1-ium-1,2-diolate] as the compound, how does the “pH dependence of hydrolysis rate” value ([1]; PBS with 50 μM DTPA) read?
Its value is “essentially first order in hydroxide ion concentration between pH 5 and 11”.

And the “hydrolysis rate relative to 1” value ([1]; physiological pH)?
The value was “an order of magnitude slower”.

And the “rate of hydrolysis of 2 to 1” value [2, 15]?
Its value is 0.067 s⁻¹.

And the “time to complete hydrolysis of 2 to 1” value [2, 15]?
Its value is at most 40 s.

And the “time to complete dissociation” value ([3]; 37° C., pH 11 carbonate buffer)?
Its value is at most 5 min.

With `CC(=O)Oc1ccccc1C(=O)O` [aspirin, reference compound] as the compound, how does the “size of the primary tumor (GFP fluorescence intensity, tumor mass)” value [4] read?
The value was “did not significantly decrease”.

And the “oxidation of DCF (fluorescence intensity)” value (from here on “oxidation of DCF”) [5]?
The value was “ineffective compared to control”.

And the BCL-2 expression [6]?
Its BCL-2 expression is “induce BCL-2 expression”.

And the ER-α levels [7]?
The ER-α levels was “increases ERα levels”.

What about the IC50 [8] of the same compound?
The IC50 was over 1 mM.

Which “pH dependence of hydrolysis rate” value ([1]; PBS with 50 μM DTPA) does the source give for `CC(C)N[N+]([O-])=N[O-].[Na+]` [Compound 1, O^2-Sodium 1-(N-Isopropylamino)diazen-1-ium-1,2-diolate, reference compound] here?
Its value is “slowed as the pH was increased from 3 to 10, with a small increase in rate thereafter”.

And the “rate of decay of 1” value ([1]; PBS with 50 μM DTPA, 37° C. (FIG. 3A))?
Its value is 0.0012 s⁻¹.

What about the “rate of decay of 1” value ([2]; 1 formed from 2 with esterase, pH 7.4 (FIG. 4C)) of the same compound?
Its value is 0.0033 s⁻¹.

What about the “hydrolysis at pH 11” value ([3]; pH 11) of the same compound?
Its value is “hydrolyzed slowly”.

And the “hydrolysis rate relative to 2 (more slowly)” value ([3]; pH 11)?
The value was 100 fold.

What about the “oxidation of DCF” value [5] of the same compound?
The value was “oxidized DCF, but to a much reduced extent”.

For `CCN(CC)[N+]([O-])=N[O-].[Na+]` [DEA/NO, O^2-Sodium 1-(N,N-Diethylamino)diazen-1-ium-1,2-diolate], which “oxidation of DCF” value [5] is on record?
The value was “oxidized DCF, but to a much reduced extent”.

What about the “inhibitory effect on PARP activity” value [9] of the same compound?
The value was “rapid, but required rather high concentrations of donor”.

With `[Na+].[Na+].[O-][N+]([O-])=NO` [Angeli's salt, Na2N2O3] as the compound, how does the tumor growth [10] read?
Its tumor growth is “some inhibition of tumor growth”.

And the “inhibitory effect on PARP activity” value [9]?
Its value is “rapid, but required rather high concentrations of donor”.

What about the angiogenesis [11] of the same compound?
Its angiogenesis is “inhibited angiogenesis”.

What about the “serum VEGF levels” value [12] of the same compound?
Its value is “decreased”.

And the “HIF 1α” value [13]?
The value was “inhibited”.

Which viability at 10 µM [14] does the source give for `CC/C(=C(\c1ccccc1)c1ccc(OCCN(C)C)cc1)c1ccccc1` [tamoxifen] here?
The viability at 10 µM was 76%.
